From ChEMBL document CHEMBL1125941, “(2,3)--methylenepenicillanic acid sulfone: synthesis and -lactamase inhibiting properties” (Bioorg Med Chem Lett, 1991)

These compounds were tested on Escherichia coli (assay: Compound was evaluated for the inhibition of Escherichia coli TEM-1 enzyme).
Type: functional, organism-based

Row | Structure (SMILES) | IC50 [nM]
1 | C[C@]12C[C@@]1(C(=O)O)N1C(=O)C[C@H]1S2(=O)=O | 2500
2 | C[C@@]12C[C@]1(C(=O)O)N1C(=O)C[C@H]1S2(=O)=O | 406000
3 | CC1(C)[C@H](C(=O)O)N2C(=O)C[C@H]2S1(=O)=O [SULBACTAM] | 1900

The compounds below were run on Enterobacter cloacae (assay: Compound was evaluated for the inhibition of Enterobacter cloacae P99 cephalosporinase).
Type: functional, organism-based

Row | Structure (SMILES) | IC50 [µM]
4 | C[C@]12C[C@@]1(C(=O)O)N1C(=O)C[C@H]1S2(=O)=O | 322
5 | C[C@@]12C[C@]1(C(=O)O)N1C(=O)C[C@H]1S2(=O)=O | 12
6 | CC1(C)[C@H](C(=O)O)N2C(=O)C[C@H]2S1(=O)=O [SULBACTAM] | 20

The compounds below were run on Staphylococcus aureus (assay: Compound was evaluated for the inhibition of Staphylococcus aureus penicillinase (PC1)).
Type: functional, organism-based

Row | Structure (SMILES) | IC50 [µM]
7 | C[C@]12C[C@@]1(C(=O)O)N1C(=O)C[C@H]1S2(=O)=O | 14
8 | C[C@@]12C[C@]1(C(=O)O)N1C(=O)C[C@H]1S2(=O)=O | 548
9 | CC1(C)[C@H](C(=O)O)N2C(=O)C[C@H]2S1(=O)=O [SULBACTAM] | 6.8
